Measurements as given in PubChem BioAssay AID449764 (Southern Research Specialized Biocontainment Screening …, 2010).

Test system: Mycobacterium tuberculosis H37Rv growth inhibition, no glycerol
Experiment: Mycobacterium tuberculosis H37Rv growth inhibition, no glycerol, confirmatory dose response (AID 449764);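 also: growth read after 7 days of incubation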
Conditions: for IC90: measured here: IC90 growth inhibition

SMILES	IC50 [µM]	IC90 [µM]
CCCCCCCCCCOC(=O)Cn1c(COc2ccc(Cl)cc2)[n+](C)c2ccccc21	15.8	17.5
O=C1Nc2ccccc2/C1=N\N=C\C1=C(N2CCOCC2)C(=C\c2ccccc2)/CC1	36.5	> 100
Cc1cc(NC(=O)c2sccc2C)n(-c2nc3ccccc3[nH]2)n1	10.2	> 100
COC(=O)C1CC(=O)N(c2ccc(OCc3ccccc3Cl)cc2)C1 (stereo not drawn)	1.26	4.8
CCNCC(=O)N1c2ccccc2CCc2ccc(NC(=O)OC(C)C)cc21	53.7	77
CC(Oc1ccc2ccccc2c1)C(=O)NNC(=S)NC(=O)c1ccco1 (stereo not drawn)	22.4	31.9
Cc1ccc(Cl)cc1N1CCN(CC(=O)NC2CCCc3ccccc32)CC1 (stereo not drawn)	35.6	51.1
COc1ccc(-n2nnnc2S(=O)(=O)CC(=O)N2CCCCC2)cc1	12.5	20.9
COc1cccc(NC(=O)C2CCN(Cc3cnn(-c4ccccc4)c3-n3cccc3)CC2)c1	54.9	90
O=C(CCl)Nc1cccn2ncnc12	3.32	7.56
CC(C)c1ccc2c(c1)CCC1C(C)(CN)CCCC21C (stereo not drawn)	17.7	26.7
Cc1ccc(-c2cc(-c3ccccc3C)[nH]n2)c(O)c1	38.4	> 100
CCc1cc(/C(Cc2ccccn2)=N\Nc2ccccc2)c(O)cc1O	85.7	94.6
O=C(O)c1ccc(N2C(=O)/C(=C/c3ccc(-c4ccc([N+](=O)[O-])cc4)o3)C=C2c2ccccc2)cc1	49.8	> 100
Cc1cccc(C(=O)OCC(=O)N2CCc3ccccc3C2)c1O	24.8	> 25
Cc1ccc(OCCN2CCN(c3ncnc4sc(C)c(C)c34)CC2)cc1	53.5	79.3
COC(=O)[C@H](CCSC)NC(=O)N1CCN(c2cccc(C(F)(F)F)c2)CC1	29	58.8
COc1cc(N)c(Cl)cc1C(=O)N[C@H]1CCN(CCCOc2ccc(F)cc2)C[C@H]1OC	48.7	89
Cc1ccn2c(NC3CCCCC3)c(-c3cccc(-c4cccc(Cl)c4)c3)nc2c1	26.4	36.3
CCOc1ccc(NC(=O)c2sc3nc(C)nc(N4CCOCC4)c3c2C)cc1	30.3	57
CC1(C)Cc2ccccc2C2=NNC(=O)C2=N1	11.2	15.1
CCOc1ccc(-c2csc(/C(C#N)=C\c3ccc(O)c([N+](=O)[O-])c3)n2)cc1	16.7	> 100
Cc1ccc(C(=O)ONc2ccc(N=O)cc2)cc1	57.3	> 100

SMILES	IC50 [µM]	IC90 [µM]
CCCOc1ccc(N2CC(C(=O)Nc3ccccn3)CC2=O)cc1 (stereo not drawn)	36.4	> 100
O=C(c1cccc(-c2ccco2)c1)N1CCCC(N2CCN(c3ccc(F)cc3)CC2)C1 (stereo not drawn)	74.1	95
COc1ccc(-c2c[n+]3c4n2CCCCC4=C(c2ccccc2)C3)cc1	63.1	78.7
Cc1ccc(OCCCCNC2CCCC(C)C2C)c(C)c1 (stereo not drawn)	23.1	25.4
Cc1cc(C)c2nc(-c3ccncc3)cc(C(=O)N3CCN(Cc4ccccc4Cl)CC3)c2c1	31.3	43.7
CC1CC(C)CN(C(=O)C2CCC(CNc3c(N4CCCCC4)c(=O)c3=O)CC2)C1 (stereo not drawn)	45.8	> 100
CCOc1ccc2nc(NC(=O)C34CC5CC(CC(NC(C)=O)(C5)C3)C4)sc2c1	23.2	38.4
CCOC(=O)C1CCCc2c1[nH]c1c(C(N)=O)cccc21 (stereo not drawn)	8.59	17.3
OCC1(Cc2cccc(Cl)c2)CCCN(Cc2ccc3cc(F)ccc3n2)C1 (stereo not drawn)	38.2	54.6
O=c1c2ccccc2nc(/C=C/c2ccccc2)n1-c1ccc(O)cc1		> 50
O[C@@H](c1cc(C(F)(F)F)nc2c(C(F)(F)F)cccc12)[C@H]1CCCCN1	22.7	25.5
O=C(Nc1nnc(-c2ccccc2Cl)o1)c1nc2ccccc2s1	6.33	7.21
Cc1ccc(S(=O)(=O)NCc2ccc(C(=O)NCCCN3CCC(Cc4ccccc4)CC3)cc2)cc1		> 100
CCCC1CC(C)(c2csc(Nc3ccc(OCC)cc3)n2)OC1=O (stereo not drawn)	35.3	44.9
COc1ccc(-c2cc(-c3ccccc3)c(C#N)c(S(C)=O)n2)cc1 (stereo not drawn)	91.8	> 100
CCOC(=O)CNc1ccc(C(=O)OCC)cc1[N+](=O)[O-]	18.1	> 100
CCOc1ccc(NCc2cccn2-c2nnc(N3CCC(C(=O)NCCCN4C(C)CCCC4C)CC3)s2)cc1 (stereo not drawn)	93.6	> 100
C/C(=N\N=C(/N)SC1CC(=O)N(c2ccc(Cl)cc2)C1=O)c1cccs1 (stereo not drawn)	32.8	> 100
CC1(c2nnc(-c3ccncc3)o2)CC(c2ccccc2)=NO1 (stereo not drawn)	68.5	> 100
O=C(NC1CCCCC1)C(c1cccs1)N(CCCN1CCOCC1)C(=O)c1ccc(-c2ccccc2)[nH]1 (stereo not drawn)	51.3	86.4
Clc1ccc(Nc2ccc(-n3ccnc3)nn2)cc1Cl	21.9	24.8
N#CC(C(=O)NCc1ccco1)c1nc2ccccc2nc1N1CCOCC1 (stereo not drawn)	43	47.2
